Experimental data: PMC11167047 (Cell Death Discovery, 2024)

Columns and labels:
Test in all cases: kinome screen (33PanQinase)
Type in all cases: biochemical
[1] = molecular target: T1, ACK1 (Homo sapiens, UniProt Q07912)
T1 construct: purchased Reaction Biology Europe GmbH (formerly ProQinase)
Method: (§1) The Kinome Screening was performed by Reaction Biology Europe GmbH (http://reactionbiology.com; Freiburg i. Br., Germany).

[2] = molecular target: T2, CK1γ2 (Homo sapiens, UniProt P78368)
T2 construct: purchased Reaction Biology Europe GmbH (formerly ProQinase)
T2 sequence (P78368 whole entry): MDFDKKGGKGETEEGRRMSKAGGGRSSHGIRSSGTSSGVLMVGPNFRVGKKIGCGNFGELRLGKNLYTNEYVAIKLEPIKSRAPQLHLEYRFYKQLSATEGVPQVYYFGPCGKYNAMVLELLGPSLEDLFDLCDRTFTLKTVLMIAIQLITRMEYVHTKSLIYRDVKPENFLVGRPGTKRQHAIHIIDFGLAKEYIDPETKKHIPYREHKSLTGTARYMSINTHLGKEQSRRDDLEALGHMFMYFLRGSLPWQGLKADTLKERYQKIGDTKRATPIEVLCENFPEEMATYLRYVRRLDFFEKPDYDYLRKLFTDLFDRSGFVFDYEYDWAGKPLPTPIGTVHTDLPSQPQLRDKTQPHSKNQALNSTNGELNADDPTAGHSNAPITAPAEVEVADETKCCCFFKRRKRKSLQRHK
Method: as §1

[3] = molecular target: T3, EEF2K (Homo sapiens, UniProt O00418)
T3 construct: purchased Reaction Biology Europe GmbH (formerly ProQinase)
T3 sequence (O00418 1-725): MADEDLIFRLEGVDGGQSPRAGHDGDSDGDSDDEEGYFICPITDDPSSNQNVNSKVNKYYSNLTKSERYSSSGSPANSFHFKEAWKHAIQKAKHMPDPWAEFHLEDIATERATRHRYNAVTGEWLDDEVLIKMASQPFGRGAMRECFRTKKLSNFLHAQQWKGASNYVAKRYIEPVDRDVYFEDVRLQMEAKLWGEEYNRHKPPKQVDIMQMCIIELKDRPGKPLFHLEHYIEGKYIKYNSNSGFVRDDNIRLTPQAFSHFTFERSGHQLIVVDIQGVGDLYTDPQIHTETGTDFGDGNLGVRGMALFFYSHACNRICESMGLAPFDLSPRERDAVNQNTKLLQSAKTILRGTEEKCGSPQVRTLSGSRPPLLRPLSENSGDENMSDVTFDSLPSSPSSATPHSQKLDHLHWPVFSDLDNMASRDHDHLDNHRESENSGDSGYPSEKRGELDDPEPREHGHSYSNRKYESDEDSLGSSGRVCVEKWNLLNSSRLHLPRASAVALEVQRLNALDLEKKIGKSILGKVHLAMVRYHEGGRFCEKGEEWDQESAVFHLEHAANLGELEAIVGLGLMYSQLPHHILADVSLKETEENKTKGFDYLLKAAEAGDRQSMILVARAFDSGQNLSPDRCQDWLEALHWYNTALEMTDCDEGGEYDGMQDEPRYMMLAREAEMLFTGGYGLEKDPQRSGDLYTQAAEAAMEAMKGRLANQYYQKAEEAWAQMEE
Method: as §1

[4] = molecular target: T4, MATK (Homo sapiens, UniProt P42679)
T4 construct: purchased Reaction Biology Europe GmbH (formerly ProQinase)
T4 sequence (P42679 1-507): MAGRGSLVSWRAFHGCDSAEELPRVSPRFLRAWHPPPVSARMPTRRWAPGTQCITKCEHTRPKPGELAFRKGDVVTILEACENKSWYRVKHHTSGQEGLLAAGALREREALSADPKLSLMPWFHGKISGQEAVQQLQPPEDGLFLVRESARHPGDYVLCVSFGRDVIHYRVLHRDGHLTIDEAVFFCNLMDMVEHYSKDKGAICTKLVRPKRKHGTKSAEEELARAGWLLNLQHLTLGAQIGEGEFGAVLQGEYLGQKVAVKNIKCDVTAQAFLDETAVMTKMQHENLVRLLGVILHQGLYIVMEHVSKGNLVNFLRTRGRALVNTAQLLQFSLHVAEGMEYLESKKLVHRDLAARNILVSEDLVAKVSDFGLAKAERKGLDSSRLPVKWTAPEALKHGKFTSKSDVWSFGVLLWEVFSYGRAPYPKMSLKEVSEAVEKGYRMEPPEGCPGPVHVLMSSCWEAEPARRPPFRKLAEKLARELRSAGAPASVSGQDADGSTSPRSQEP
Method: as §1

[5] = molecular target: T5, PDK1 (Homo sapiens, UniProt O15530)
T5 construct: purchased Reaction Biology Europe GmbH (formerly ProQinase)
T5 sequence (O15530 1-556): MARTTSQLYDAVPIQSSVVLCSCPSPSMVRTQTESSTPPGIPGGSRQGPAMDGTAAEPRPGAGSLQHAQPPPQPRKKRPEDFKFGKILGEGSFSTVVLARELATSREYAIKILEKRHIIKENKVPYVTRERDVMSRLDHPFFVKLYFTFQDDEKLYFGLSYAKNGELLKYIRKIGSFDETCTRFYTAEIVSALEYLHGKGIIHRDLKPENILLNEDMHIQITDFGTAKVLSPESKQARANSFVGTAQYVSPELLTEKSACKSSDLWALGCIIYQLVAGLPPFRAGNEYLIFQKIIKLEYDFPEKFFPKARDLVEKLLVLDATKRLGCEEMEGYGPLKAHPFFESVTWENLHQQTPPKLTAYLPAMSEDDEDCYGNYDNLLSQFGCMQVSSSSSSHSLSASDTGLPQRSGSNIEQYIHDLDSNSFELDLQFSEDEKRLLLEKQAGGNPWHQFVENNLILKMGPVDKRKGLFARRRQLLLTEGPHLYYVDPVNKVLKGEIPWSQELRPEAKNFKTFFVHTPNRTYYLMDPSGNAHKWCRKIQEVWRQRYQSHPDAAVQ
Method: as §1

[6] = molecular target: T6, PHKG2 (Homo sapiens, UniProt P15735)
T6 construct: purchased Reaction Biology Europe GmbH (formerly ProQinase)
T6 sequence (P15735 1-406): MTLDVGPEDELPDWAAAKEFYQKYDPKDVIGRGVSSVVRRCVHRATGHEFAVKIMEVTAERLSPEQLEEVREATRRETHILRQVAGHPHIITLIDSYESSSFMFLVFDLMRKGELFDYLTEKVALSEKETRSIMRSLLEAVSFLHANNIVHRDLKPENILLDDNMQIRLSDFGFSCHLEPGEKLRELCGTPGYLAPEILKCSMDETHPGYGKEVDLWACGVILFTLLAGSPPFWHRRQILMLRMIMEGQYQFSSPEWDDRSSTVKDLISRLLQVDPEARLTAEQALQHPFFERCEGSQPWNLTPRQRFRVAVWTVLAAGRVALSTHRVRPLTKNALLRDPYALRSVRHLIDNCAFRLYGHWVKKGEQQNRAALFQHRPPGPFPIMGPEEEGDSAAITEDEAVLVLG
Method: as §1

[7] = molecular target: T7, TGFBR2 (Homo sapiens, UniProt P37173)
T7 construct: purchased Reaction Biology Europe GmbH (formerly ProQinase)
T7 sequence (P37173 23-567): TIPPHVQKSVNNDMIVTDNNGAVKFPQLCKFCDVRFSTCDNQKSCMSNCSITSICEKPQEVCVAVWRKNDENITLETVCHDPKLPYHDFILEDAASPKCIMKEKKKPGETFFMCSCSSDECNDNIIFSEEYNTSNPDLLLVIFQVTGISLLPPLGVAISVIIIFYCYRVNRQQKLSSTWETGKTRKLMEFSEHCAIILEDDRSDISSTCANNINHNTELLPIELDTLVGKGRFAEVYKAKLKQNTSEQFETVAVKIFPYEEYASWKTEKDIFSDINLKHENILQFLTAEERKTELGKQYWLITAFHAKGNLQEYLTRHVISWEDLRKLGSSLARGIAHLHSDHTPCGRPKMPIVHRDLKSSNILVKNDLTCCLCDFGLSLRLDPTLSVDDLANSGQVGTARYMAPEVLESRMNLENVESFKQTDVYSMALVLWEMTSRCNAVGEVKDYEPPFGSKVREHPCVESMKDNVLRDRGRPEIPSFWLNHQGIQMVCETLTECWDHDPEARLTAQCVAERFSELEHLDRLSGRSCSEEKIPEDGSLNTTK
Method: as §1

[8] = molecular target: T8, TRKA (Homo sapiens, UniProt P04629)
T8 construct: purchased Reaction Biology Europe GmbH (formerly ProQinase)
T8 sequence (P04629 33-796): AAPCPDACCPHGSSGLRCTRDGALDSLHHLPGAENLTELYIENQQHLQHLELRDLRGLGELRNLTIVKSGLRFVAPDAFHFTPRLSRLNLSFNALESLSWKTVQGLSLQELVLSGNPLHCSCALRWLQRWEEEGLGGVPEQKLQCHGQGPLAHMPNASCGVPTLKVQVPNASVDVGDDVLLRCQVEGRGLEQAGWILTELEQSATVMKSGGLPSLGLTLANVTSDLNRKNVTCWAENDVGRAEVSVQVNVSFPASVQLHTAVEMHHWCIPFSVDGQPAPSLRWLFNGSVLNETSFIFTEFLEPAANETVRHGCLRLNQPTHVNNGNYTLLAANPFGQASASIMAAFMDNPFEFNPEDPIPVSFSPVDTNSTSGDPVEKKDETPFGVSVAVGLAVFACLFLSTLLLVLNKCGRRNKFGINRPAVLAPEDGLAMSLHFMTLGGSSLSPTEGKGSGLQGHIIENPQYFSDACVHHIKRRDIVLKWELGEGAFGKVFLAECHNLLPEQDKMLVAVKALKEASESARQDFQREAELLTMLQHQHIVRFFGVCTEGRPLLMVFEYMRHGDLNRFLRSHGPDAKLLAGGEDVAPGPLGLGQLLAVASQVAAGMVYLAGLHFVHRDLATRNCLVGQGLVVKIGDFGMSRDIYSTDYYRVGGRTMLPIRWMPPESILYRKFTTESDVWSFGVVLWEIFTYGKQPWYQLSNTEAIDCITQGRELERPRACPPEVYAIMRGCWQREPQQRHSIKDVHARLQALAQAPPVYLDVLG
Method: as §1

[9] = molecular target: T9, TTBK1 (Homo sapiens, UniProt Q5TCY1)
T9 construct: purchased Reaction Biology Europe GmbH (formerly ProQinase)
T9 sequence (Q5TCY1 whole entry): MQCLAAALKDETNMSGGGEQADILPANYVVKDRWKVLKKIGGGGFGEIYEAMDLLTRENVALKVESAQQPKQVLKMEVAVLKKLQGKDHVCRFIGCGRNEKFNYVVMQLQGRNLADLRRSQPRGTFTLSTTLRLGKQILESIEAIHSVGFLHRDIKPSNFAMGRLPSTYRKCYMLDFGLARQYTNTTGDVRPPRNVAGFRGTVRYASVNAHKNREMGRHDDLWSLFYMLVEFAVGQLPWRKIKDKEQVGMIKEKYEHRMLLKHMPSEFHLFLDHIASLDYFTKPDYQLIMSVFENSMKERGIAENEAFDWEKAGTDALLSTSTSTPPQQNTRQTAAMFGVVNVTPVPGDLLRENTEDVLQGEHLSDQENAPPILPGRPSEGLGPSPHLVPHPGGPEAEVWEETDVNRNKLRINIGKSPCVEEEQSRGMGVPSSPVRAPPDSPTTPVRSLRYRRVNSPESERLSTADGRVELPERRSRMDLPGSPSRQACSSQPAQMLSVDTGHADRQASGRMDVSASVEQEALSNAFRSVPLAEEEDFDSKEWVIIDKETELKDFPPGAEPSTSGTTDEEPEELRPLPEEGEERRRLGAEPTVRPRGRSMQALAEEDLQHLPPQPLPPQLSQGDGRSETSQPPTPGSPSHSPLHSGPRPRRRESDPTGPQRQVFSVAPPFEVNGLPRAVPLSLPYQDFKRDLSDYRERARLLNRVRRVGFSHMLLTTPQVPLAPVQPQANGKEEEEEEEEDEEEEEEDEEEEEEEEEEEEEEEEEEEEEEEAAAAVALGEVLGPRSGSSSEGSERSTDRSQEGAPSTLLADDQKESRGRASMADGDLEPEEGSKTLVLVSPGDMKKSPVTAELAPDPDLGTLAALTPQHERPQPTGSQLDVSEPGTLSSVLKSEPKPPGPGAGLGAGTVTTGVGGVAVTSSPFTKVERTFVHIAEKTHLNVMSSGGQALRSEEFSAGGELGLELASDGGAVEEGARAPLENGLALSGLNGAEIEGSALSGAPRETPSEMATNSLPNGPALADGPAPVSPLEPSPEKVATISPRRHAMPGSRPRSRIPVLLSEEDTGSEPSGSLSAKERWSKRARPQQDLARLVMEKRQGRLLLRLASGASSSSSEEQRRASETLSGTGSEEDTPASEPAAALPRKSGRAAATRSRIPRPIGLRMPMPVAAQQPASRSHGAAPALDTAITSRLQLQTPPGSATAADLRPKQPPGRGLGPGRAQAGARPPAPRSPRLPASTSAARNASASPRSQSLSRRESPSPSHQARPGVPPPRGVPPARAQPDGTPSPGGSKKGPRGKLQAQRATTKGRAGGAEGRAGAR
Method: as §1

[10] = molecular target: T10, YES (Homo sapiens, UniProt P07947)
T10 construct: purchased Reaction Biology Europe GmbH (formerly ProQinase)
T10 sequence (P07947 whole entry): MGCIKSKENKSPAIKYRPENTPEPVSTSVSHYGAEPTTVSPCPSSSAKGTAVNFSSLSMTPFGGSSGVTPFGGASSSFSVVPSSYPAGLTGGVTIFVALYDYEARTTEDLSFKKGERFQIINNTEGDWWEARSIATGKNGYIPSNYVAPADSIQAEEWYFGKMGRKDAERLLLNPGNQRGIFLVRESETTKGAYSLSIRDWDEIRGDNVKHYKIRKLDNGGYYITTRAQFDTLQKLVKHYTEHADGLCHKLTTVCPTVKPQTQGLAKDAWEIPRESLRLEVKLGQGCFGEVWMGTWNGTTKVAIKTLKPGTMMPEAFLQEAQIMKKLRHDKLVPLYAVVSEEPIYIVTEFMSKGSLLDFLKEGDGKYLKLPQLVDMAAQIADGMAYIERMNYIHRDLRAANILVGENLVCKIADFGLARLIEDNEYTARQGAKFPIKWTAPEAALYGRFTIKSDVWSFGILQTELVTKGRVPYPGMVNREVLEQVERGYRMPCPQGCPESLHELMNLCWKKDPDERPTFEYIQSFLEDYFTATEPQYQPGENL
Method: as §1

T1 sequence (Q07912 whole entry): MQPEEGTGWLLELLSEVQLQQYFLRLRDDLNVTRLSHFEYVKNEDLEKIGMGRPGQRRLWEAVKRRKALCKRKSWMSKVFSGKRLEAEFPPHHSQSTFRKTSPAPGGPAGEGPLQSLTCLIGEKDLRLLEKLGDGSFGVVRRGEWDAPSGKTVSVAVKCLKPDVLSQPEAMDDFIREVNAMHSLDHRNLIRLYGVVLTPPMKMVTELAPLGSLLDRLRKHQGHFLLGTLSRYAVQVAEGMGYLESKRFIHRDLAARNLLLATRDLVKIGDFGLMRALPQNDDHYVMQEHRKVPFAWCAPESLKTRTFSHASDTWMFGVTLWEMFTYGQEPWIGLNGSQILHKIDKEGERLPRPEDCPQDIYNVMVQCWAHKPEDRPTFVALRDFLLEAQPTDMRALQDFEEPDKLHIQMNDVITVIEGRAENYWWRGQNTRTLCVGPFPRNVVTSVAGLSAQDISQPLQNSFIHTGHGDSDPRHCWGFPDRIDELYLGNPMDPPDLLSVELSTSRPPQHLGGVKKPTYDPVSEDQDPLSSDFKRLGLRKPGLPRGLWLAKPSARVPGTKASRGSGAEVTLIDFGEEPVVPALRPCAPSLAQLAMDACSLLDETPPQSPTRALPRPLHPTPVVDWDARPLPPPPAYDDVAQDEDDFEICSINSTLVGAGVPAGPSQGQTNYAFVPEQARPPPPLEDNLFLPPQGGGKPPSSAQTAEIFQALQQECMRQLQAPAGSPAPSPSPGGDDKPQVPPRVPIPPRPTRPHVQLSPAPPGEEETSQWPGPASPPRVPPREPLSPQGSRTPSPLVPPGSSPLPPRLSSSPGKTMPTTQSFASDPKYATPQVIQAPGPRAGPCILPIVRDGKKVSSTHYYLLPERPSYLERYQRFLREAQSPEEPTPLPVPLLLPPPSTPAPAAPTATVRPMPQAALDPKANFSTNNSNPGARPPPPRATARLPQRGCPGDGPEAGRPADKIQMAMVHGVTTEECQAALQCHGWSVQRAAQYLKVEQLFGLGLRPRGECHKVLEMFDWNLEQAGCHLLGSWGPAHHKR

Row | Compound | residual kinase activity ([1]; 0.3 µM) | residual kinase activity ([2]; 0.3 µM) | residual kinase activity ([3]; 0.3 µM) | residual kinase activity ([4]; 0.3 µM) | residual kinase activity ([5]; 0.3 µM) | residual kinase activity ([6]; 0.3 µM) | residual kinase activity ([7]; 0.3 µM) | residual kinase activity ([8]; 0.3 µM) | residual kinase activity ([9]; 0.3 µM) | residual kinase activity ([10]; 0.3 µM) | further results
1 | COc1ccnc2[nH]cc(-c3cc(N)nc(N)c3)c12 [meriolin 16] | 72 % of control | 30 % of control | 89 % of control | 90 % of control | 83 % of control | 52 % of control | 85 % of control | 40 % of control | 108 % of control | 90 % of control | residual kinase activity ([1]; 0.03 µM): 83 % of control; residual kinase activity ([2]; 0.03 µM): 86 % of control; residual kinase activity ([3]; 0.03 µM): 96 % of control; residual kinase activity ([4]; 0.03 µM): 107 % of control; residual kinase activity ([5]; 0.03 µM): 98 % of control; residual kinase activity ([6]; 0.03 µM): 74 % of control; residual kinase activity ([7]; 0.03 µM): 109 % of control; residual kinase activity ([8]; 0.03 µM): 83 % of control; residual kinase activity ([9]; 0.03 µM): 116 % of control; residual kinase activity ([10]; 0.03 µM): 100 % of control
2 | c1ccc(CNc2cc(-c3c[nH]c4ncccc34)ccn2)cc1 [meriolin 36] | 59 % of control | 19 % of control | 84 % of control | 134 % of control | 160 % of control | 52 % of control | 72 % of control | 9 % of control | 101 % of control | 65 % of control | residual kinase activity ([1]; 3 µM): 15 % of control; residual kinase activity ([2]; 3 µM): 3 % of control; residual kinase activity ([3]; 3 µM): 97 % of control; residual kinase activity ([4]; 3 µM): 94 % of control; residual kinase activity ([5]; 3 µM): 39 % of control; residual kinase activity ([6]; 3 µM): 23 % of control; residual kinase activity ([7]; 3 µM): 24 % of control; residual kinase activity ([8]; 3 µM): 1 % of control; residual kinase activity ([9]; 3 µM): 77 % of control; residual kinase activity ([10]; 3 µM): 19 % of control
